Test results as given in ChEMBL document CHEMBL1155722, “Biological and mechanistic activities of xanthorrizol and 4-(1',5'-dimethylhex-4'-enyl)-2-methylphenol isolated from Iostephane heterophylla” (2001).
Converted amounts (≈) assume the structure as drawn.

Columns and labels:
Type in all cases: functional
Escherichia coli [1] = experiment: Inhibition of RNA synthesis in Escherichia coli assessed as incorporation of [3H]uridine at 0.25 ug/mL by LKB Betaplate scintillation counter relative to control; set-up: scale not given: the % may be the effect or the level left
Escherichia coli [2] = experiment: Inhibition of DNA synthesis in Escherichia coli assessed as incorporation of [3H]thymidine at 0.25 ug/mL by LKB Betaplate scintillation counter relative to control; set-up: scale not given: the % may be the effect or the level left
Escherichia coli [3] = experiment: Inhibition of protein synthesis in Escherichia coli assessed as incorporation of [3H]amino acid at 0.25 ug/mL by LKB Betaplate scintillation counter relative to control; set-up: scale not given: the % may be the effect or the level left
Escherichia coli [4] = experiment: Inhibition of DNA synthesis in Escherichia coli assessed as incorporation of [3H]thymidine at 25 ug/mL by LKB Betaplate scintillation counter relative to control; set-up: scale not given: the % may be the effect or the level left
Escherichia coli [5] = experiment: Inhibition of protein synthesis in Escherichia coli assessed as incorporation of [3H]amino acid at 25 ug/mL by LKB Betaplate scintillation counter relative to control; set-up: scale not given: the % may be the effect or the level left
Escherichia coli [6] = experiment: Inhibition of RNA synthesis in Escherichia coli assessed as incorporation of [3H]uridine at 25 ug/mL by LKB Betaplate scintillation counter relative to control; set-up: scale not given: the % may be the effect or the level left
Escherichia coli [7] = experiment: Antimicrobial activity against Escherichia coli 442 after 18 hrs by microbroth dilution method; conditions: Escherichia coli, 442, 18 h
Escherichia coli [8] = experiment: Inhibition of protein synthesis in Escherichia coli assessed as incorporation of [3H]amino acid at 8 ug/mL by LKB Betaplate scintillation counter relative to control; set-up: scale not given: the % may be the effect or the level left
Escherichia coli [9] = experiment: Inhibition of DNA synthesis in Escherichia coli assessed as incorporation of [3H]thymidine at 128 ug/mL by LKB Betaplate scintillation counter relative to control; set-up: scale not given: the % may be the effect or the level left
Enterococcus faecium [10] = experiment: Antimicrobial activity against vancomycin-resistant Enterococcus faecium 379 after 18 hrs by microbroth dilution method; conditions: Enterococcus faecium, 379, 18 h
Escherichia coli [11] = experiment: Inhibition of RNA synthesis in Escherichia coli assessed as incorporation of [3H]uridine at 16 ug/mL by LKB Betaplate scintillation counter relative to control; set-up: scale not given: the % may be the effect or the level left
Bacillus subtilis = experiment: Antimicrobial activity against Bacillus subtilis 327 after 18 hrs by microbroth dilution method; conditions: Bacillus subtilis, 327, 18 h
Escherichia coli [12] = experiment: Inhibition of RNA synthesis in Escherichia coli assessed as incorporation of [3H]uridine at 128 ug/mL by LKB Betaplate scintillation counter relative to control; set-up: scale not given: the % may be the effect or the level left
Staphylococcus aureus [13] = experiment: Antimicrobial activity against methicillin-resistant Staphylococcus aureus 310 after 18 hrs by microbroth dilution method; conditions: Staphylococcus aureus, 310, 18 h
Escherichia coli [14] = experiment: Inhibition of DNA synthesis in Escherichia coli assessed as incorporation of [3H]thymidine at 64 ug/mL by LKB Betaplate scintillation counter relative to control; set-up: scale not given: the % may be the effect or the level left
Escherichia coli [15] = experiment: Inhibition of DNA synthesis in Escherichia coli assessed as incorporation of [3H]thymidine at 16 ug/mL by LKB Betaplate scintillation counter relative to control; set-up: scale not given: the % may be the effect or the level left
Escherichia coli [16] = experiment: Inhibition of protein synthesis in Escherichia coli assessed as incorporation of [3H]amino acid at 32 ug/mL by LKB Betaplate scintillation counter relative to control; set-up: scale not given: the % may be the effect or the level left
Escherichia coli [17] = experiment: Inhibition of RNA synthesis in Escherichia coli assessed as incorporation of [3H]uridine at 64 ug/mL by LKB Betaplate scintillation counter relative to control; set-up: scale not given: the % may be the effect or the level left
Escherichia coli [18] = experiment: Inhibition of DNA synthesis in Escherichia coli assessed as incorporation of [3H]thymidine at 32 ug/mL by LKB Betaplate scintillation counter relative to control; set-up: scale not given: the % may be the effect or the level left
Enterococcus faecium [19] = experiment: Antimicrobial activity against Enterococcus faecium 436 after 18 hrs by microbroth dilution method; conditions: Enterococcus faecium, 436, 18 h
Klebsiella pneumoniae = experiment: Antimicrobial activity against Klebsiella pneumoniae 425 after 18 hrs by microbroth dilution method; conditions: Klebsiella pneumoniae, 425, 18 h
Staphylococcus aureus [20] = experiment: Antimicrobial activity against Staphylococcus aureus ATCC 25923 after 18 hrs by microbroth dilution method; conditions: ATCC 25923, 18 h
Escherichia coli [21] = experiment: Inhibition of RNA synthesis in Escherichia coli assessed as incorporation of [3H]uridine at 32 ug/mL by LKB Betaplate scintillation counter relative to control; set-up: scale not given: the % may be the effect or the level left
Escherichia coli [22] = experiment: Antimicrobial activity against Escherichia coli 389 after 18 hrs by microbroth dilution method; conditions: Escherichia coli, 389, 18 h
Escherichia coli [23] = experiment: Inhibition of protein synthesis in Escherichia coli assessed as incorporation of [3H]amino acid at 16 ug/mL by LKB Betaplate scintillation counter relative to control; set-up: scale not given: the % may be the effect or the level left
Escherichia coli [24] = experiment: Inhibition of protein synthesis in Escherichia coli assessed as incorporation of [3H]amino acid at 64 ug/mL by LKB Betaplate scintillation counter relative to control; set-up: scale not given: the % may be the effect or the level left
Escherichia coli [25] = experiment: Inhibition of RNA synthesis in Escherichia coli assessed as incorporation of [3H]uridine at 8 ug/mL by LKB Betaplate scintillation counter relative to control; set-up: scale not given: the % may be the effect or the level left
Escherichia coli [26] = experiment: Inhibition of protein synthesis in Escherichia coli assessed as incorporation of [3H]amino acid at 128 ug/mL by LKB Betaplate scintillation counter relative to control; set-up: scale not given: the % may be the effect or the level left
Pseudomonas aeruginosa = experiment: Antimicrobial activity against Pseudomonas aeruginosa 339 after 18 hrs by microbroth dilution method; conditions: Pseudomonas aeruginosa, 339, 18 h
Escherichia coli [27] = experiment: Antimicrobial activity against Escherichia coli ATCC 25922 after 18 hrs by microbroth dilution method; conditions: ATCC 25922, 18 h
Candida albicans = experiment: Antimicrobial activity against Candida albicans 54 after 18 hrs by microbroth dilution method; conditions: Candida albicans, 54, 18 h
Escherichia coli [28] = experiment: Inhibition of DNA synthesis in Escherichia coli assessed as incorporation of [3H]thymidine at 8 ug/mL by LKB Betaplate scintillation counter relative to control; set-up: scale not given: the % may be the effect or the level left
Staphylococcus aureus [29] = experiment: Antimicrobial activity against methicillin-sensitive Staphylococcus aureus 375 after 18 hrs by microbroth dilution method; conditions: Staphylococcus aureus, 375, 18 h
Staphylococcus aureus [30] = experiment: Antimicrobial activity against Staphylococcus aureus infected in CD1 mouse administered subcutaneously after 30 mins infection measured after 7 days; conditions: sc

Structure (SMILES) | MIC (Escherichia coli [7]) | Activity (Escherichia coli [8]) | Activity (Escherichia coli [9]) | MIC (Enterococcus faecium [10]) | Activity (Escherichia coli [11]) | MIC (Bacillus subtilis) | Activity (Escherichia coli [12]) | MIC (Staphylococcus aureus [13]) | Activity (Escherichia coli [14]) | Activity (Escherichia coli [15]) | Activity (Escherichia coli [16]) | Activity (Escherichia coli [17]) | Activity (Escherichia coli [18]) | MIC (Enterococcus faecium [19]) | MIC (Klebsiella pneumoniae) | MIC (Staphylococcus aureus [20]) | Activity (Escherichia coli [21]) | MIC (Escherichia coli [22]) | Activity (Escherichia coli [23]) | Activity (Escherichia coli [24]) | other results
CO[C@H]1/C=C/O[C@@]2(C)Oc3c(C)c(O)c4c(O)c(c(/C=N/N5CCN(C)CC5)c(O)c4c3C2=O)NC(=O)/C(C)=C\C=C\[C@H](C)[C@H](O)[C@@H](C)[C@@H](O)[C@@H](C)[C@H](OC(C)=O)[C@@H]1C [RIFAMPIN] |  |  |  |  |  |  |  |  |  |  |  |  |  |  |  |  |  |  |  |  | Activity (Escherichia coli [1]): 1.17%; Activity (Escherichia coli [2]): 89.56%; Activity (Escherichia coli [3]): 27.82%
O=C(N[C@H](CO)[C@H](O)c1ccc([N+](=O)[O-])cc1)C(Cl)Cl [CHLORAMPHENICOL] |  |  |  |  |  |  |  |  |  |  |  |  |  |  |  |  |  |  |  |  | Activity (Escherichia coli [4]): 82.98%; Activity (Escherichia coli [5]): 18.96%; Activity (Escherichia coli [6]): 85.76%
CC(C)=CCC[C@@H](C)c1ccc(O)c(C)c1 | > 128 µg/mL | 68% | 30.71% | 16 µg/mL (≈ 73.3 µM) | 60.35% | 16 µg/mL (≈ 73.3 µM) | 34.04% | 32 µg/mL (≈ 147 µM) | 37.82% | 63.06% | 44.2% | 39.08% | 48.24% | 16 µg/mL (≈ 73.3 µM) | 32 µg/mL (≈ 147 µM) | 16 µg/mL (≈ 73.3 µM) | 50.02% | 32 µg/mL (≈ 147 µM) | 52.28% | 39.06% | Activity (Escherichia coli [25]): 66.73%; Activity (Escherichia coli [26]): 25.34%; MIC (Pseudomonas aeruginosa): > 128 µg/mL; MIC (Escherichia coli [27]): > 128 µg/mL; MIC (Candida albicans): 128 µg/mL (≈ 586 µM); Activity (Escherichia coli [28]): 75.57%; MIC (Staphylococcus aureus [29]): 16 µg/mL (≈ 73.3 µM)
CC(C)=CCC[C@@H](C)c1ccc(C)c(O)c1 [XANTHORRIZOL] | > 128 µg/mL | 102.1% | 1.52% | 16 µg/mL (≈ 73.3 µM) | 91.13% | 16 µg/mL (≈ 73.3 µM) | 1.91% | 32 µg/mL (≈ 147 µM) | 7.03% | 99.98% | 33.57% | 8.72% | 35.75% | 16 µg/mL (≈ 73.3 µM) | 32 µg/mL (≈ 147 µM) | 16 µg/mL (≈ 73.3 µM) | 48.56% | 32 µg/mL (≈ 147 µM) | 96.92% | 23.39% | Activity (Escherichia coli [25]): 96.87%; ED50 (Staphylococcus aureus [30]): > 32 mg/kg; Activity (Escherichia coli [26]): 17.12%; MIC (Pseudomonas aeruginosa): > 128 µg/mL; MIC (Escherichia coli [27]): > 128 µg/mL; MIC (Candida albicans): 128 µg/mL (≈ 586 µM); Activity (Escherichia coli [28]): 95.33%; MIC (Staphylococcus aureus [29]): 16 µg/mL (≈ 73.3 µM)
